Results as given in PMC5936838, “Structural implications of hERG K^+ channel block by a high-affinity minimally structured blocker” (The Journal of Biological Chemistry, 2018).
Values joined by “and” are separate entries in the source; they are usually repeats but may differ in a detail not shown here. Equal entries are not always repeated. “Also recorded” adds a separate entry of the source.

Key:
[1] = biological target: T1, WT hERG (Homo sapiens, UniProt Q12809); test: Whole-cell patch-clamp recording of IhERG, WT hERG in HEK293 cells at 37 °C; type: cell-based
T1 construct: expressed in transfected cells
T1 sequence (Q12809 whole entry): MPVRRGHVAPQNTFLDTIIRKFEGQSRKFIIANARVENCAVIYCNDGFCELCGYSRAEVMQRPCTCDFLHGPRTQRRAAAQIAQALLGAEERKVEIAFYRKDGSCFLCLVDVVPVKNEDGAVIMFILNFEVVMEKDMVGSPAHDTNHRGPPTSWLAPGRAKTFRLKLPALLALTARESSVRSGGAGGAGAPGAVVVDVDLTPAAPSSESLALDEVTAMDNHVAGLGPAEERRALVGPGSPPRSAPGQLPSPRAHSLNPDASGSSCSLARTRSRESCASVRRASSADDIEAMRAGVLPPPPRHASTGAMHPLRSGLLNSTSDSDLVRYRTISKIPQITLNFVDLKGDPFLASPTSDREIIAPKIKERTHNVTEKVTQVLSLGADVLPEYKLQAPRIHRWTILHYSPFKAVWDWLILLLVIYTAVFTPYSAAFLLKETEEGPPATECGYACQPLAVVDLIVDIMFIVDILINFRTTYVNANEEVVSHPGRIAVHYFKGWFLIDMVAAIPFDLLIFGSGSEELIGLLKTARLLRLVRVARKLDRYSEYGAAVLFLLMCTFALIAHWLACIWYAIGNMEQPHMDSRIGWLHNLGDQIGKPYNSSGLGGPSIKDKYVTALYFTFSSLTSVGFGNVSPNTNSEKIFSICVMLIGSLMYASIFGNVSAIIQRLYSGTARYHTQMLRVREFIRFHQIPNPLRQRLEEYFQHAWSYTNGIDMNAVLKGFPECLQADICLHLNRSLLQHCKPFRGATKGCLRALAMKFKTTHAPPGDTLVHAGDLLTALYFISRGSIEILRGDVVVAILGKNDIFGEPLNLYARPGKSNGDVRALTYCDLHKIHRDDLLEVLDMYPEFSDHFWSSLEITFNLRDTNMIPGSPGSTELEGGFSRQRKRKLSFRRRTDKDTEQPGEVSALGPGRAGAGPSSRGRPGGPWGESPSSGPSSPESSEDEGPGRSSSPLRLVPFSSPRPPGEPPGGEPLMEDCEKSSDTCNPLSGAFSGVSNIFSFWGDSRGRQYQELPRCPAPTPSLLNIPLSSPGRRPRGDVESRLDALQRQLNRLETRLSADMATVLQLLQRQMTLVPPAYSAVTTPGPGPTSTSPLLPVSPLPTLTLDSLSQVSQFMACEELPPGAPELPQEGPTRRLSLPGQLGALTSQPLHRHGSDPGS
From the text: (§1) A HEK293 cell line stably expressing WT hERG channels was kindly donated by Prof. Craig January ([51]). The pore helix (T623A and S624A) and S6 helix (F656A) alanine mutants, attenuated-inactivation mutants (N588K and S620T), and S5 mutant F557L were all generated and used as described previously ([3], [18], [41], [52]). The HEK293 cell line stably expressing the hERG S6 helix mutant Y652A was used in this study as described previously ([52]).
(§2) HEK293 cells stably or transiently expressing hERG constructs were maintained as described previously ([18], [19], [52]). Cells were plated in 40-mm Petri dishes at least 48 h before transfection and incubated at 37 °C with 5% CO2. Cells were transfected either with Lipofectamine^TM 2000 (Invitrogen) or Lipofectamine LTX (Invitrogen) following the manufacturer's instructions. The amount of hERG construct DNA that was transfected varied between 0.1 and 1.0 μg depending on the level of functional expression. 0.15 μg of CD8 was cotransfected as a transfection marker, and successfully transfected cells were identified using Dynabeads® (Invitrogen). Cells were plated on sterilized glass shards in 40-mm Petri dishes and incubated at 37 °C (5% CO2) at least 24 h before electrophysiological recording; this was to allow time for cell recovery and hERG construct expression.
For IhERG recordings, glass shards containing plated cells were placed in a recording chamber mounted on an inverted microscope (Nikon Diaphot). The cells were superfused continuously with Tyrode's solution containing 140 mM NaCl, 4 mM KCl, 2.5 mM CaCl2, 1 mM MgCl2, 10 mM glucose, 5 mM HEPES (titrated to pH 7.4 with NaOH). As described previously ([18], [19]), a modified “high-K^+” version of this solution (containing 94 mM KCl and 50 mM NaCl) was used to obtain recordable currents from comparatively poorly expressed hERG mutants (T623A and F656A). Patch pipettes (Schott number 8250 glass, A-M Systems Inc.) were pulled (Narishige, PP 830) and polished (Narishige, MF 83) to final resistance values between 2 and 4 megaohms. The patch pipettes were filled with intracellular solutio, containing 130 mM KCl, 1 mM MgCl2, 5 mM EGTA, 5 mM MgATP, and 10 mM HEPES (titrated to pH 7.2 with KOH). Pipette resistance compensation was between 70 and 80%. Cavalli-2 ([30]), which was synthesized by Ascent Scientific (Abcam Ltd.), was dissolved in DMSO to produce 100 μM, 1 mM, and 10 mM stock solutions. Stock solutions were diluted either in standard or high-K^+ Tyrode's solution as appropriate to obtain final concentrations stated under “Results.” Solutions were preheated to 37 ± 1 °C and applied to single cells using a homemade, multibarreled superfusion system, enabling rapid superfusate exchange (<1 s) ([53]). Thus, measurements of IhERG were made at 37 ± 1 °C as described previously ([18], [19], [52], [54], [55]).
All IhERG recordings were made using an Axopatch 200B amplifier (Axon Instruments, now Molecular Devices) and a CV203BU head stage. Data were acquired using a Digidata 1320 interface (Axon Instruments, now Molecular Devices). Data digitization rates were between 10 and 25 kHz during all voltage protocols, and an appropriate bandwidth between 2 and 10 kHz was set on the amplifier. For WT hERG and most of the mutant channels studied, activating voltage commands to +20 mV were used with tail currents observed at either […] (for most mutants) or −120 mV (for T623A and F656A) ([18][–][20], [33]). The level of block of WT and mutant IhERG by Cavalli-2 was attained by repetitive protocol application for 5 min, and fractional inhibition of IhERG tails was measured. […]

[2] = biological target: T2, N588K hERG (Homo sapiens, UniProt Q12809, N588K); test: Whole-cell patch-clamp recording of IhERG, attenuated-inactivation mutant N588K; type: cell-based
T2 construct: expressed in transfected cells; host or cells: HEK293
From the text: as §1, §2
(§3) For IhERG recordings, glass shards containing plated cells were placed in a recording chamber mounted on an inverted microscope (Nikon Diaphot). The cells were superfused continuously with Tyrode's solution containing 140 mM NaCl, 4 mM KCl, 2.5 mM CaCl2, 1 mM MgCl2, 10 mM glucose, 5 mM HEPES (titrated to pH 7.4 with NaOH). As described previously ([18], [19]), a modified “high-K^+” version of this solution (containing 94 mM KCl and 50 mM NaCl) was used to obtain recordable currents from comparatively poorly expressed hERG mutants (T623A and F656A). Patch pipettes (Schott number 8250 glass, A-M Systems Inc.) were pulled (Narishige, PP 830) and polished (Narishige, MF 83) to final resistance values between 2 and 4 megaohms. […]

[3] = biological target: T3, S620T hERG (Homo sapiens, UniProt Q12809, S620T); test: Whole-cell patch-clamp recording of IhERG, attenuated-inactivation mutant S620T; type: cell-based
T3 construct: expressed in transfected cells; host or cells: HEK293
T3 sequence (Q12809 whole entry S620T): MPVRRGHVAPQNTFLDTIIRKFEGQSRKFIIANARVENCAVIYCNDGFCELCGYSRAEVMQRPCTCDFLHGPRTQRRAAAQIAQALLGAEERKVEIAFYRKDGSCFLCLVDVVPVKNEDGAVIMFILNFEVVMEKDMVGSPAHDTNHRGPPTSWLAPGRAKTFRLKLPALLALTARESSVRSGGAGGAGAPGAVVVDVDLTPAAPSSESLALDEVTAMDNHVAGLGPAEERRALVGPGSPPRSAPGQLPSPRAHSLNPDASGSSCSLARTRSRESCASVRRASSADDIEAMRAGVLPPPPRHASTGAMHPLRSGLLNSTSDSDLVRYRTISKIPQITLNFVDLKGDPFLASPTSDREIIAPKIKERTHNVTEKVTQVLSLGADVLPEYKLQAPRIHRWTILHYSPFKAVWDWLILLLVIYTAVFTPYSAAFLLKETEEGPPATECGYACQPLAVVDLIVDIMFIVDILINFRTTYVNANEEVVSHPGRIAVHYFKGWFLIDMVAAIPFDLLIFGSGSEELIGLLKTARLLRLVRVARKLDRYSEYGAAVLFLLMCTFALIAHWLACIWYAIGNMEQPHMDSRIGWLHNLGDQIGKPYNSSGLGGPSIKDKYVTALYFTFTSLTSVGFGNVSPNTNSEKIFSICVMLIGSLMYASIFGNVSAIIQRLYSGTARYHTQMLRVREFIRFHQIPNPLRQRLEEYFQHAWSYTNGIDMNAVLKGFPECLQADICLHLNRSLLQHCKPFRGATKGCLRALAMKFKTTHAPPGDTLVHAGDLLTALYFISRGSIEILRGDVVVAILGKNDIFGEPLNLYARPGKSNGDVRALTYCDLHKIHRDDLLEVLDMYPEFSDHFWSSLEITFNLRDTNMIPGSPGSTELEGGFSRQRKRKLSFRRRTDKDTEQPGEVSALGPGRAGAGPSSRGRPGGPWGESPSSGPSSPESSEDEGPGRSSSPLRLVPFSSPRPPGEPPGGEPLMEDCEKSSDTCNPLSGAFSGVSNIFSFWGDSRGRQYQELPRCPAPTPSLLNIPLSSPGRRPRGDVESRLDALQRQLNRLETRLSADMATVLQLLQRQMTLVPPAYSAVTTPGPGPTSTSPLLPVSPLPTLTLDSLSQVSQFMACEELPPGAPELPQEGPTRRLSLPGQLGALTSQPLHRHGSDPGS
From the text: as §1
as §2, with “construct expression. […]” for “construct expression.”

[4] = biological target: T4, T623A hERG (Homo sapiens, UniProt Q12809, T623A); test: Whole-cell patch-clamp recording of IhERG, pore helix mutant T623A; type: cell-based
T4 construct: expressed in transfected cells; host or cells: HEK293
T4 sequence (Q12809 whole entry T623A): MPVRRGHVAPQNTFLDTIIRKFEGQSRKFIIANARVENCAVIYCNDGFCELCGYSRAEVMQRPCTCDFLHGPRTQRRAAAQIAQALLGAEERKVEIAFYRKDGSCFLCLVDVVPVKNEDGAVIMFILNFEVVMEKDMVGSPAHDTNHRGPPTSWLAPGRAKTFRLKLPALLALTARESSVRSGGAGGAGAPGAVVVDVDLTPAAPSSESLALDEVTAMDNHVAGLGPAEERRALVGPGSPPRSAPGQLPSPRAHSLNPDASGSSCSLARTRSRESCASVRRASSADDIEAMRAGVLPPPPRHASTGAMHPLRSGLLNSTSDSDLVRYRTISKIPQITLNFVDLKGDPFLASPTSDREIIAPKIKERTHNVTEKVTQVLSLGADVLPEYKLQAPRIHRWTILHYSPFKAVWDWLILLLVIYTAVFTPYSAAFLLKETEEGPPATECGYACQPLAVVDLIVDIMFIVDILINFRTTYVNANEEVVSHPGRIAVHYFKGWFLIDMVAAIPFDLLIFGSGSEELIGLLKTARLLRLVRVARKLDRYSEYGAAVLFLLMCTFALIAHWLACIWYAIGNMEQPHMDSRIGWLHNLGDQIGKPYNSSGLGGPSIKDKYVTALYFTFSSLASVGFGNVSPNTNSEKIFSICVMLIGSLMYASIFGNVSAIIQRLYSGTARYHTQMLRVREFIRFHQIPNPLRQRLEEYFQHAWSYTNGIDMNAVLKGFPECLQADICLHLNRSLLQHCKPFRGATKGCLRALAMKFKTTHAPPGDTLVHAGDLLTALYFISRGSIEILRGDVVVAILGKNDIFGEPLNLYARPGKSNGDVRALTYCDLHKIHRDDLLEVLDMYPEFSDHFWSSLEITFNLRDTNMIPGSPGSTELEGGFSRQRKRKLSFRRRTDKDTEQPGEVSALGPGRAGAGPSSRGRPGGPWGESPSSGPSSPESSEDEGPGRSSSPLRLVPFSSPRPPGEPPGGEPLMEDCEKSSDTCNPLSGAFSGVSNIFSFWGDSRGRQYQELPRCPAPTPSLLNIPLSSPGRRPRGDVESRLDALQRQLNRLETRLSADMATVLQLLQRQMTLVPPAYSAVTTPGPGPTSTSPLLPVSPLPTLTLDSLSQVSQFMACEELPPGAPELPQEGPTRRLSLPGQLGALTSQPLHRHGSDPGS
From the text: as §1
as §2, with “construct expression. […]” for “construct expression.”

[5] = biological target: T5, S624A hERG (Homo sapiens, UniProt Q12809, S624A); test: Whole-cell patch-clamp recording of IhERG, pore helix mutant S624A; type: cell-based
T5 construct: expressed in transfected cells; host or cells: HEK293
T5 sequence (Q12809 whole entry S624A): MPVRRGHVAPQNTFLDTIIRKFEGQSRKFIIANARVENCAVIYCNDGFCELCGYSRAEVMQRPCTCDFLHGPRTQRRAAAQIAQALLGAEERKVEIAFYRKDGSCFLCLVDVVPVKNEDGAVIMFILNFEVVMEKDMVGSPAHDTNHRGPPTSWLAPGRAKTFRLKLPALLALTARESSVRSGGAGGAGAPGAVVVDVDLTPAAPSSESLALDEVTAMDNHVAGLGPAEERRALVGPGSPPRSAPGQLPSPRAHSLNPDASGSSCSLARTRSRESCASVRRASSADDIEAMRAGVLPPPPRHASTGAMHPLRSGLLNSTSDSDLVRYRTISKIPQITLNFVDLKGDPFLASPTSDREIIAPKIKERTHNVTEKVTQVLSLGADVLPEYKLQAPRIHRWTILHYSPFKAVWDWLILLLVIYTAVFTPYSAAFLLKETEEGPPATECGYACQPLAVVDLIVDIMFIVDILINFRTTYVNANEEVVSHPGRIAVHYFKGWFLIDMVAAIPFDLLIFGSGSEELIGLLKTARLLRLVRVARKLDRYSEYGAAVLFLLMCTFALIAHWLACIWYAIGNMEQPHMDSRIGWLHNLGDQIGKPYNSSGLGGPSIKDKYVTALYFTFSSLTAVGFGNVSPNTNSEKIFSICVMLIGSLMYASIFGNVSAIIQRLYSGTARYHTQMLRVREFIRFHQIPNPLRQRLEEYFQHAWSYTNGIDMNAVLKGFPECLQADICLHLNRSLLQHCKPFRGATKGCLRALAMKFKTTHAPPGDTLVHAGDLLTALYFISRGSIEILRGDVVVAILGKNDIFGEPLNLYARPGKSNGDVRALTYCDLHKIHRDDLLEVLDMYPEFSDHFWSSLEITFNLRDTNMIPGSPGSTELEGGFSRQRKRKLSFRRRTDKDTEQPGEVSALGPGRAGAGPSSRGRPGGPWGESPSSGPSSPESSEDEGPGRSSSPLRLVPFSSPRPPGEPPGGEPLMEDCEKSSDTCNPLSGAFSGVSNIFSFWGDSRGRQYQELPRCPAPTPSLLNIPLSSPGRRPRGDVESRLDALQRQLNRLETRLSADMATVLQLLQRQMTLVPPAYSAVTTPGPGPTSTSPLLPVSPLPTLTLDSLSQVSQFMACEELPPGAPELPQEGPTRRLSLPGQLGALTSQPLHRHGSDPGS
From the text: as §1
as §2, with “construct expression. […]” for “construct expression.”

[6] = biological target: T6, Y652A hERG (Homo sapiens, UniProt Q12809, Y652A); test: Whole-cell patch-clamp recording of IhERG, S6 helix mutant Y652A; type: cell-based
T6 construct: expressed in transfected cells
From the text: as §1, §2, §3

[7] = biological target: T7, F656A hERG (Homo sapiens, UniProt Q12809, F656A); test: Whole-cell patch-clamp recording of IhERG, S6 helix mutant F656A; type: cell-based
T7 construct: expressed in transfected cells; host or cells: HEK293
From the text: as §1, §2, §3

[8] = biological target: T8, F557L hERG (Homo sapiens, UniProt Q12809, F557L); test: Whole-cell patch-clamp recording of IhERG, S5 mutant F557L; type: cell-based
T8 construct: expressed in transfected cells; host or cells: HEK293
From the text: as §1, §2
The F557L hERG mutation was generated using the Quik Change® site-directed mutagenesis kit (Stratagene, La Jolla, CA). In brief, a pair of complementary oligonucleotide primers containing the mutation (forward primer sequence, 5′[…]-3′; reverse primer sequence, 5′[…]-3′; synthesized by Sigma-Genosys, Haverhill, UK) was used in a PCR (95 °C for 1 min, 60 °C for 1 min, and 68 °C for 16 min for 18 cycles) by using hERG in a modified pcDNA3.0 vector as a DNA template. A DpnI digest of the PCR mixture was then performed for 1 h at 37 °C. Competent DH5α Escherichia coli (Invitrogen) were transformed using standard procedures. The mutation was confirmed by sequencing of the entire ORF (Eurofins MWG Operon, Ebersberg, Germany). […]

[9] = biological target: T1, WT hERG; test: Whole-cell patch-clamp recording of IhERG, WT hERG in HEK293 cells at 37 °C; type: cell-based; remark: listed apart in the source
[10] = test system: hERG; parameters: method as in earlier work; settings: HEK cells at room temperature; ref 30 (Cavalli et al.); cited from earlier work

SMILES: c1ccc(CCCNCCC(c2ccccc2)c2ccccc2)cc1 [Cavalli-2]
- k (slope) of IhERG activation in the presence of compound ([1]; 30 nM): 5.0 ± 1.5 and 5.03 ± 1.50 and 4.8 ± 1.1
- k of IhERG inactivation in the presence of compound ([1]; 30 nM): 19.9 ± 1.1 and 20.1 ± 1.3
- ΔV0.5 of activation ([1]; 30 nM vs control): -4.68 mV
- inactivation τ in the presence of compound ([1]; 30 nM, +40 mV after 2-ms step to −120 mV, control 1.4 ± 0.2 ms): 1.6 ± 0.5 ms
- voltage dependence of fractional inhibition of WT IhERG ([1]; 30 nM, test depolarizations −30 to +60 mV): voltage-dependent over the tested range
- fractional inhibition of IhERG during +40-mV phase vs 0-mV phases ([1]; 30 nM, three-step protocol 0/+40/0 mV): significantly reduced
- δ value (Woodhull analysis) ([1]; KD at +60 mV vs 0 mV): 0.2
- IC50 at 5 min ([1]; human, HEK293 cells stably expressing WT hERG, pH 7.4, WT-2, inward IhERG tails, voltage step −120 mV, 94 mM K+): 17.5 nM
- recovery at 30 nM ([1]; human, HEK293 cells stably expressing WT hERG, pH 7.4, washout after 30 nM, five cells, read-out: recovery on washout, of control amplitude): 59.5 ± 4.1%
- Potency reduction compared with its WT-control (fold WT IC50) ([2]; N588K vs WT-1): 15 fold and 15.3 fold
- inhibition at 5 min, 0.3 µM ([2]; human, HEK293 cells expressing N588K hERG, pH 7.4, 300 nM): < 50%
- IC50 at 5 min ([2]; human, HEK293 cells expressing N588K hERG, pH 7.4, N588K, −40 mV, 4 mM K+): 544 nM
- Potency reduction compared with its WT-control (fold WT IC50) ([3]; S620T vs WT-1): 54 fold and 53.8 fold
- IC50 at 5 min ([3]; human, HEK293 cells expressing S620T hERG, pH 7.4, S620T, −40 mV, 4 mM K+): 1920 nM
- Potency reduction compared with its WT-control (fold WT IC50) ([4]; T623A vs WT-2): 16 fold and 16.1 fold
- IC50 at 5 min ([4]; human, HEK293 cells expressing T623A hERG, pH 7.4, T623A, −120 mV, 94 mM K+): 281 nM
- Potency reduction compared with its WT-control (fold WT IC50) ([5]; S624A vs WT-1): 7 fold and 7.4 fold
- IC50 at 5 min ([5]; human, HEK293 cells expressing S624A hERG, pH 7.4, S624A, −40 mV, 4 mM K+): 262 nM
- voltage dependence of Y652A IhERG tail inhibition ([6]; 300 nM, −20 to +40 mV): eliminated voltage dependence of inhibition; also recorded: no significant voltage dependence
- Potency reduction compared with its WT-control (fold WT IC50) ([6]; Y652A vs WT-1): 17 fold and 16.7 fold
- IC50 at 5 min ([6]; human, HEK293 cells stably expressing Y652A hERG, pH 7.4, Y652A, −40 mV, 4 mM K+): 594 nM
- reduction of F656A IhERG ([7]; 1 μM, −120 mV, high K+): ~40%
- Potency reduction compared with its WT-control (fold WT IC50) ([7]; F656A vs WT-2): 75 fold and 75.1 fold
- IC50 at 5 min ([7]; human, HEK293 cells expressing F656A hERG, pH 7.4, F656A, −120 mV, 94 mM K+): 1320 nM
- voltage dependence of F557L IhERG tail inhibition ([8]; 300 nM, −20 to +40 mV): eliminated voltage dependence of inhibition; also recorded: no significant voltage dependence; also recorded: nearly abolished
- Potency reduction compared with its WT-control (fold WT IC50) ([8]; F557L vs WT-1): 10 fold and 9.5 fold
- IC50 at 5 min ([8]; human, HEK293 cells expressing F557L hERG, pH 7.4, F557L, −40 mV, 4 mM K+): 339 nM
- IhERG tail inhibition ([9]; 30 nM, standard protocol, tails at −40 mV, 4 mM K+): 50.2 ± 2.0%
- change in t½ of IhERG deactivation ([9]; 30 nM, tails at −40 mV): No significant change
- IC50 ([9]; WT-1, IhERG tails, voltage step −40 mV, 4 mM K+, HEK293, 37 °C): 35.6 nM
- inhibition at 5 min, 0.03 µM ([9]; human, HEK293 cells stably expressing WT hERG, pH 7.4, 30 nM, AP voltage clamp, read-out: inhibition of peak IhERG during ventricular action potential waveform): 42.3 ± 6.7%
- inhibition at 5 min, 30 nM ([9]; human, HEK293 cells stably expressing WT hERG, pH 7.4, 30 nM, standard protocol, tails at −40 mV, 4 mM K+, read-out: IhERG tail inhibition): ~50%
- IC50 at 5 min ([9]; human, HEK293 cells stably expressing WT hERG, pH 7.4, WT-1, IhERG tails, voltage step −40 mV, 4 mM K+, HEK293, 37 °C): 36 nM
- IC50 [10]: 17 nM
